The results in this text go back to ChEMBL document CHEMBL5291721, “A preclinical secondary pharmacology resource illuminates target-adverse drug reaction associations of marketed drugs” (Nat Commun, 2023).

One assay concerns the target Mu-type opioid receptor (Homo sapiens, UniProt P35372). The assay is described as follows: biochemical. The assay is classed as functional.
Assay [1] has as its target T1, Prostaglandin G/H synthase 1 (Rattus norvegicus, UniProt Q63921).
T1 sequence (Q63921 whole entry): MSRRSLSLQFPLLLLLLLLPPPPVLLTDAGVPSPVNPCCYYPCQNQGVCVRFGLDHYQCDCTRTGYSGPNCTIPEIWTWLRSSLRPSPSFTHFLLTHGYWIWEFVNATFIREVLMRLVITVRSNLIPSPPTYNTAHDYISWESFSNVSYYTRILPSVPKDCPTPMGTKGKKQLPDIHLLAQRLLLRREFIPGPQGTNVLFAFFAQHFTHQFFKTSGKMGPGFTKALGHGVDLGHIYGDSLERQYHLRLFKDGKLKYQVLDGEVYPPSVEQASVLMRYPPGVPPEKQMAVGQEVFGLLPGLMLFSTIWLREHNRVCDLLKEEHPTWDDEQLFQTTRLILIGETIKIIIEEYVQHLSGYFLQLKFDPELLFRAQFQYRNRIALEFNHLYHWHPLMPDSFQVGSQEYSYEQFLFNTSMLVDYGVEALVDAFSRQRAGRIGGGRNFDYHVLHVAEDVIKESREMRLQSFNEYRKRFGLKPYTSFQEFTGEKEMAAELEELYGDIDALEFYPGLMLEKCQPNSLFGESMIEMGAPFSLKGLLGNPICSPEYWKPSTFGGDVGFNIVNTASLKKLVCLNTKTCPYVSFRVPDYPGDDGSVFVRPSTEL
The assay is classed as functional.

In another assay the target is Adenosine receptor A2a (Homo sapiens, UniProt P29274).
The target in a further assay is Cannabinoid receptor 1 (Homo sapiens, UniProt P21554). Type of assay: functional, cell-based.
Assay [2] concerns the target T2, Alpha-1A adrenergic receptor (Homo sapiens, UniProt P35348).
T2 sequence (P35348 whole entry): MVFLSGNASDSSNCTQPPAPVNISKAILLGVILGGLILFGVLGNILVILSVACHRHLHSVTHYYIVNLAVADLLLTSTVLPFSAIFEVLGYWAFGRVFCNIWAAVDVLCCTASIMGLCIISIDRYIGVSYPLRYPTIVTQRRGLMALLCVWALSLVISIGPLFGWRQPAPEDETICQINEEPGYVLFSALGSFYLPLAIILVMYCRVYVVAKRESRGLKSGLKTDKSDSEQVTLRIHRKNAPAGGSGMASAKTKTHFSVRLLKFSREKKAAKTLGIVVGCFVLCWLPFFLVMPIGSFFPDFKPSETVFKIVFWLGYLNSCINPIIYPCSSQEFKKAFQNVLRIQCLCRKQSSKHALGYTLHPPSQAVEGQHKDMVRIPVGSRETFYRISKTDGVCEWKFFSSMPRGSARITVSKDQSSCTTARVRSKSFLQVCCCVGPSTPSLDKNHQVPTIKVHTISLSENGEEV
The assay is classed as functional, cell-based.

The target of assay [3] is Gamma-aminobutyric acid receptor subunit alpha-1 (Rattus norvegicus, UniProt P62813).
Assay [4] has as its target T3, Muscarinic acetylcholine receptor M2 (Homo sapiens, UniProt P08172).
T3 sequence (P08172 whole entry): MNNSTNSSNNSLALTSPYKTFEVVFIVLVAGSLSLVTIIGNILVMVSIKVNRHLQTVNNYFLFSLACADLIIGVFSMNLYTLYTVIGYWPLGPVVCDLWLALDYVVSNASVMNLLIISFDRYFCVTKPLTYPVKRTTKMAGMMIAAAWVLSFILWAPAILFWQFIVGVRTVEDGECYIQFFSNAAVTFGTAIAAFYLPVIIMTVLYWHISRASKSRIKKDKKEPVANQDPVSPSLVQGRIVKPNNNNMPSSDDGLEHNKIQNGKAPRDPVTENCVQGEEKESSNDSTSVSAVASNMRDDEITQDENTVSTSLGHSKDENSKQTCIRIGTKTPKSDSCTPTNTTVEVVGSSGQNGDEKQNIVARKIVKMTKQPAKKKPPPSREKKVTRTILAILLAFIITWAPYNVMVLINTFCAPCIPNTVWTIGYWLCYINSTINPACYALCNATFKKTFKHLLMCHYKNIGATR
Type of assay: functional, cell-based.

The next assay has as its target T4, Glucocorticoid receptor (Homo sapiens, UniProt P04150).
T4 sequence (P04150 whole entry): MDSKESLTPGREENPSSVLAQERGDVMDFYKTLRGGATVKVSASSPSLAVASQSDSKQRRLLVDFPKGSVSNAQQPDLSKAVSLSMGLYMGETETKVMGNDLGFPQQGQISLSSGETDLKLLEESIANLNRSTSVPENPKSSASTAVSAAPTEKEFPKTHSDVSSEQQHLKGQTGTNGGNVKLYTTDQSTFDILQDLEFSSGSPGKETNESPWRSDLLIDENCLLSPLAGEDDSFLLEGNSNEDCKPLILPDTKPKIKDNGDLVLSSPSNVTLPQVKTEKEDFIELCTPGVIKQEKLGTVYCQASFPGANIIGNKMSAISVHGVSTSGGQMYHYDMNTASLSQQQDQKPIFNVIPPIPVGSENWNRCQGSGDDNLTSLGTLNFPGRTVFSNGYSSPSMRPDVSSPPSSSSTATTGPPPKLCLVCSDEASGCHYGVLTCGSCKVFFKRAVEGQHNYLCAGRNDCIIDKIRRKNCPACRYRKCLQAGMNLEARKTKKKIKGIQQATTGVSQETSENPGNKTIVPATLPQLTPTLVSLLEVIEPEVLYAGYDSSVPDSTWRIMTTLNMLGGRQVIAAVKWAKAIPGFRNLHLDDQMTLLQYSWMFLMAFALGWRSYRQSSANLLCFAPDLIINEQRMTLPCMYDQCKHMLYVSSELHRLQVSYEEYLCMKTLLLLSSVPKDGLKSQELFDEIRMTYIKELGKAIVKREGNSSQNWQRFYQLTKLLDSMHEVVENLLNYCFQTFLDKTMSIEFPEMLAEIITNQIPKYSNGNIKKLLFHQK

The target in assay [5] is Growth hormone secretagogue receptor type 1 (Homo sapiens, UniProt Q92847).
For assay [6], the target named is Glutamate receptor ionotropic, NMDA 1 (Rattus norvegicus, UniProt P35439).
Further: assay procedure not described here.

Gamma-aminobutyric acid receptor subunit alpha-1, sequence (P62813 whole entry): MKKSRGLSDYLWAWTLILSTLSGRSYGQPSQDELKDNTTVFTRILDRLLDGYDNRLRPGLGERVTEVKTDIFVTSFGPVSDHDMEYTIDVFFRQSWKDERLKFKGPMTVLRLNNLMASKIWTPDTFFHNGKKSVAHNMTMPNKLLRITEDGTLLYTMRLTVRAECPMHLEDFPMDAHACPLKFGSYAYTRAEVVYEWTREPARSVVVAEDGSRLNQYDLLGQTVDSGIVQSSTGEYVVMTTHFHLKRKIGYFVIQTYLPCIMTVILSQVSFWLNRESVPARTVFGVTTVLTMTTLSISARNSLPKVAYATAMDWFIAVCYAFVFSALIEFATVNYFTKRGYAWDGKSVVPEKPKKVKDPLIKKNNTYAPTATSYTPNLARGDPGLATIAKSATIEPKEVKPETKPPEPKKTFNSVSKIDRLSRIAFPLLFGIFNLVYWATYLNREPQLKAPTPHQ
Growth hormone secretagogue receptor type 1, sequence (Q92847 whole entry): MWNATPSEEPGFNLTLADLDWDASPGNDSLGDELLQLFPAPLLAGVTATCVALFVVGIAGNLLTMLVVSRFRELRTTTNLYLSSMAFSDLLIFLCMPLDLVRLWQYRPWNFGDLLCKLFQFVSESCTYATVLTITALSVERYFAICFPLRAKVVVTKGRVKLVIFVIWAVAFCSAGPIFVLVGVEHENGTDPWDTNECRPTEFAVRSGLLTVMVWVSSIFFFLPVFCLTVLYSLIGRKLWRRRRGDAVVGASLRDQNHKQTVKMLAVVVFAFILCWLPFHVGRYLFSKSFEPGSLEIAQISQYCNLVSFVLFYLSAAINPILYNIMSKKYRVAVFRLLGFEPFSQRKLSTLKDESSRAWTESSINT
Adenosine receptor A2a, sequence (P29274 whole entry): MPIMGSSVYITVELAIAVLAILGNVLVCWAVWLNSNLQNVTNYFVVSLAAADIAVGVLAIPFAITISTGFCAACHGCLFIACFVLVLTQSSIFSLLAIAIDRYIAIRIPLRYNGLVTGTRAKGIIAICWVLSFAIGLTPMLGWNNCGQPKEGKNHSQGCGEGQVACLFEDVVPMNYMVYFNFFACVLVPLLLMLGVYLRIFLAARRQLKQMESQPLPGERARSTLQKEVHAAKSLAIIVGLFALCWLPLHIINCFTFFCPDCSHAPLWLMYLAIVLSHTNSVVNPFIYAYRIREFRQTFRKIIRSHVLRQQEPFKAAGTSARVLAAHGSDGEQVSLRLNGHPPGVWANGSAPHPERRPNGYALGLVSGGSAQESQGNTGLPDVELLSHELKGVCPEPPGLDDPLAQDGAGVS
Cannabinoid receptor 1, sequence (P21554 whole entry): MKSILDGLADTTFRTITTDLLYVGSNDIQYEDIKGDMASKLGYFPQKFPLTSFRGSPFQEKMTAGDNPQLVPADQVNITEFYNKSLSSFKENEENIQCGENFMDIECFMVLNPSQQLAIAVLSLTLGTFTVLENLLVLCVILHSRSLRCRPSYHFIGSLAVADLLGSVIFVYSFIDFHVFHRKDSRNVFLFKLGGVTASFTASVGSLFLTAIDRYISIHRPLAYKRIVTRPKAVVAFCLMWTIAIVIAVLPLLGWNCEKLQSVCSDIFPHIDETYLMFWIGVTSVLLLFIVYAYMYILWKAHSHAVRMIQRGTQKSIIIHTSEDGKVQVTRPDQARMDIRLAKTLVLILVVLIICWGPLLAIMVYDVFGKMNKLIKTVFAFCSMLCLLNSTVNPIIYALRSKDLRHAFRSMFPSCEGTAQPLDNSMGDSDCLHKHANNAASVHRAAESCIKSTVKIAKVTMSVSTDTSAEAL
Mu-type opioid receptor, sequence (P35372 whole entry): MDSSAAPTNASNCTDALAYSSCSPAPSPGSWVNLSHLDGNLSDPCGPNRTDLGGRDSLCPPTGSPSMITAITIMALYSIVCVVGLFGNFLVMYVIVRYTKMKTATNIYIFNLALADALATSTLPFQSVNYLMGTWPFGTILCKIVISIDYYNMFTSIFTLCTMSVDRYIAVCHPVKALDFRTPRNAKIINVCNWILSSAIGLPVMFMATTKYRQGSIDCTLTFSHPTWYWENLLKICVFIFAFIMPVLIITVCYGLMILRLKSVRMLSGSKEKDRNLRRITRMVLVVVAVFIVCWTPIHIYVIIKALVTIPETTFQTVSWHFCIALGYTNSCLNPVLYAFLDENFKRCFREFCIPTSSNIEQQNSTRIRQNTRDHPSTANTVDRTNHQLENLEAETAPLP

The term AC50 denotes the concentration giving half of the maximal activity seen. Higher therefore signals activity only at high concentration. Take `C=C[C@@]1(C)CC(=O)[C@]2(O)[C@@]3(C)[C@@H](O)CCC(C)(C)[C@@H]3[C@H](OC(=O)CCN(C)C)[C@H](OC(C)=O)[C@@]2(C)O1`: the AC50 on Mu-type opioid receptor is above 30 µM; in assay [1] it was above 30 µM; at Adenosine receptor A2a, above 30 µM; on Cannabinoid receptor 1, above 30 µM; in assay [2], 8.3 µM; in [3] it was above 30 µM. For the same molecule, the AC50 (in [4]; at Glucocorticoid receptor; in assay [5]; in assay [6]) was above 30 µM in each case.

In the case of `Nc1ccc(C(=O)O)c(O)c1` [AMINOSALICYLIC ACID], the AC50 (on Mu-type opioid receptor; in assay [1]; on Adenosine receptor A2a; at Cannabinoid receptor 1; in assay [2]; in assay [3]) was above 30 µM each time. Moreover, the AC50 (in assay [4]; at Glucocorticoid receptor; in assay [5]; in assay [6]) was above 30 µM in each case.

With `O=C(CCCN1CCC(n2c(O)nc3ccccc32)CC1)c1ccc(F)cc1` [BENPERIDOL], the AC50 (on Mu-type opioid receptor; in [1]; at Adenosine receptor A2a; at Cannabinoid receptor 1; in assay [2]; in [3]) was above 30 µM each time. The AC50 in assay [4] was 2.64 µM; at Glucocorticoid receptor it was above 30 µM; in assay [5], 17 µM; in [6] it was above 30 µM.

In the case of `CCN(CC)C(=O)C1CN2CCc3cc(OC)c(OC)cc3C2CC1OC(C)=O` (stereo not given) [BENZQUINAMIDE], the half-maximal activity concentration (AC50) at Mu-type opioid receptor is above 30 µM; in assay [1], 2.72 µM; at Adenosine receptor A2a, above 30 µM; at Cannabinoid receptor 1, above 30 µM; in [2], above 30 µM; in assay [3], above 30 µM. The AC50 (in assay [4]; at Glucocorticoid receptor; in assay [5]; in assay [6]) was above 30 µM each time.

For the molecule `COc1cc(OC)c(C(=O)CCCN2CCCC2)c(OC)c1` [BUFLOMEDIL], the AC50 (on Mu-type opioid receptor; in assay [1]; at Adenosine receptor A2a; at Cannabinoid receptor 1; in assay [2]; in assay [3]) was above 30 µM each time. Moreover, the AC50 (in [4]; on Glucocorticoid receptor; in assay [5]; in assay [6]) was above 30 µM in each case.

On to `COCCOC(=O)C1=C(C)NC(C)=C(C(=O)OC/C=C/c2ccccc2)C1c1cccc([N+](=O)[O-])c1` (stereo not given) [CILNIDIPINE], for which the AC50 (at Mu-type opioid receptor; in assay [1]; on Adenosine receptor A2a; at Cannabinoid receptor 1; in assay [2]; in assay [3]) was above 30 µM in each case. In addition, the AC50 in assay [4] is above 30 µM; at Glucocorticoid receptor, 6.5 µM; in [5], above 30 µM; in [6], above 30 µM.

As for `CCC(C)(Oc1ccc(C2(c3ccc(OC(C)(CC)C(=O)O)cc3)CCCCC2)cc1)C(=O)O` (stereo not given) [CLINOFIBRATE], the AC50 (at Mu-type opioid receptor; in assay [1]; on Adenosine receptor A2a; at Cannabinoid receptor 1; in assay [2]; in assay [3]) was above 30 µM in each case. In addition, the AC50 (in [4]; on Glucocorticoid receptor; in assay [5]; in assay [6]) was above 30 µM throughout.

Regarding `CCCCC[C@H](O)/C=C/[C@H]1[C@H](O)CC(=O)[C@@H]1C/C=C\CCCC(=O)O` [DINOPROSTONE], the AC50 on Mu-type opioid receptor was above 30 µM; in assay [1] it was 15 µM; at Adenosine receptor A2a it was above 30 µM; on Cannabinoid receptor 1 it was above 30 µM; in assay [2] it was above 30 µM; in assay [3] it was above 30 µM. Moreover, the concentration at half-maximal activity (AC50) (in [4]; at Glucocorticoid receptor; in assay [5]; in assay [6]) was above 30 µM throughout.

As for `CCCN(CC)C(CC)C(=O)Nc1c(C)cccc1C` (stereo not given) [ETIDOCAINE], the concentration at half-maximal activity (AC50) (at Mu-type opioid receptor; in assay [1]; on Adenosine receptor A2a; on Cannabinoid receptor 1; in [2]; in [3]) was above 30 µM each time. Moreover, the AC50 (in assay [4]; at Glucocorticoid receptor; in [5]; in assay [6]) was above 30 µM in each case.

Consider `O=C(O)c1ccccc1Nc1cccc(C(F)(F)F)c1` [FLUFENAMIC ACID], for which the AC50 on Mu-type opioid receptor was above 30 µM; in assay [1], 18.3 µM; at Adenosine receptor A2a it was above 30 µM; at Cannabinoid receptor 1, above 30 µM; in assay [2], above 30 µM; in [3], above 10 µM. Further, the concentration at half-maximal activity (AC50) is above 10 µM in [4], above 30 µM at Glucocorticoid receptor, above 30 µM in assay [5] and above 10 µM in [6].

On to `C#C[C@]1(O)CC[C@H]2[C@@H]3CCC4=CC(=O)CCC4=C3C=C[C@@]21CC` [GESTRINONE], for which the AC50 (at Mu-type opioid receptor; in assay [1]; at Adenosine receptor A2a; on Cannabinoid receptor 1; in assay [2]; in [3]) was above 30 µM in each case. Moreover, the AC50 was above 30 µM in assay [4], 0.01 µM on Glucocorticoid receptor, above 30 µM in assay [5] and above 30 µM in assay [6].

For `CCCCCCOC(=O)CCC(=O)CN` [HEXAMINOLEVULINATE], the AC50 at Mu-type opioid receptor is above 30 µM; in [1], 9.4 µM; on Adenosine receptor A2a it was above 30 µM; on Cannabinoid receptor 1, above 30 µM; in [2], above 30 µM; in assay [3] it was above 30 µM. Further, the AC50 (in [4]; on Glucocorticoid receptor; in [5]; in [6]) was above 30 µM throughout.
